Data: PubChem BioAssay AID248 (DTP/NCI, 2004)
Inconclusive results and toxic doses are left out. No stated cut-off is given here; in the data, active means T/C of 150% or more; inactive means T/C below 125%.

System: L1210 leukemia ip in BDF1 mice, survival T/C
Test: NCI In Vivo Anticancer Drug Screen. Data for tumor model L1210 Leukemia (intraperitoneal) in B6D2F1 (BDF1) mice
Conditions: endpoint: mean survival time, higher = longer survival
How it was run: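 Each compound was tested against a transplantable tumor grown in mice. The endpoint was survival, with treated animals benchmarked against vehicle controls as a simple ratio.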

[1] = dose: 100.0 mg/kg/injection, schedule: Q01DX009 (ip), vehicle: Klucel (hydroxypropylcellulose) (HPC)
[2] = dose: 100.0 mg/kg/injection, schedule: Q04DX003 (ip), vehicle: Klucel (hydroxypropylcellulose) (HPC)
[3] = dose: 200.0 mg/kg/injection, schedule: Q01DX009 (ip), vehicle: Klucel (hydroxypropylcellulose) (HPC)
[4] = dose: 200.0 mg/kg/injection, schedule: Q04DX003 (ip), vehicle: Klucel (hydroxypropylcellulose) (HPC)
[5] = dose: 400.0 mg/kg/injection, schedule: Q04DX003 (ip), vehicle: Klucel (hydroxypropylcellulose) (HPC)
[6] = dose: 100.0 mg/kg/injection, schedule: Q01DX009 (ip), vehicle: saline with Tween-80
[7] = dose: 200.0 mg/kg/injection, schedule: Q01DX009 (ip), vehicle: saline with Tween-80
[8] = dose: 50.0 mg/kg/injection, schedule: Q01DX001 (ip), vehicle: carboxymethylcellulose (CMC)
[9] = dose: 100.0 mg/kg/injection, schedule: Q01DX001 (ip), vehicle: carboxymethylcellulose (CMC)
[10] = dose: 100.0 mg/kg/injection, schedule: Q04DX003 (ip), vehicle: saline with Tween-80
[11] = dose: 400.0 mg/kg/injection, schedule: Q04DX003 (ip), vehicle: saline with Tween-80
[12] = dose: 75.0 mg/kg/injection, schedule: Q01DX001 (ip), vehicle: saline
[13] = dose: 150.0 mg/kg/injection, schedule: Q01DX001 (ip), vehicle: saline
[14] = dose: 300.0 mg/kg/injection, schedule: Q01DX001 (ip), vehicle: saline
[15] = dose: 100.0 mg/kg/injection, schedule: Q01DX001 (ip), vehicle: Klucel (hydroxypropylcellulose) (HPC)
[16] = dose: 200.0 mg/kg/injection, schedule: Q01DX001 (ip), vehicle: Klucel (hydroxypropylcellulose) (HPC)
[17] = dose: 400.0 mg/kg/injection, schedule: Q01DX001 (ip), vehicle: Klucel (hydroxypropylcellulose) (HPC)
[18] = dose: 100.0 mg/kg/injection, schedule: Q01DX001 (ip), vehicle: saline
[19] = dose: 200.0 mg/kg/injection, schedule: Q01DX001 (ip), vehicle: saline
[20] = dose: 200.0 mg/kg/injection, schedule: Q04DX003 (ip), vehicle: saline with Tween-80
[21] = dose: 400.0 mg/kg/injection, schedule: Q01DX009 (ip), vehicle: saline with Tween-80
[22] = dose: 200.0 mg/kg/injection, schedule: Q01DX001 (ip), vehicle: carboxymethylcellulose (CMC)
[23] = dose: 400.0 mg/kg/injection, schedule: Q01DX001 (ip), vehicle: carboxymethylcellulose (CMC)

Measured: T/C

CSC(c1ccc(Oc2ccccc2)cc1)=[N+]1CCCCC1
inactive: dose: 9.38 mg/kg/injection, schedule: Q01DX001 (ip), vehicle: steriod suspending solution 105 % of control | dose: 18.75 mg/kg/injection, schedule: Q01DX001 (ip), vehicle: steriod suspending solution 103 % of control | dose: 37.5 mg/kg/injection, schedule: Q01DX001 (ip), vehicle: steriod suspending solution 105 % of control

O=[N+]([O-])c1ccc2c(c1)C(Br)c1ccccc1-2 (stereo not given)
inactive: [1] 89 % of control | [2] 95 % of control | [3] 94 % of control | [4] 92 % of control | [5] 94 % of control

O=C(NC1CCCCC1)c1ccc(Cl)cc1Cl
inactive: dose: 50.0 mg/kg/injection, schedule: Q01DX009 (ip), vehicle: saline with Tween-80 100 % of control | [6] 100 % of control | [7] 96 % of control

CCN=C(c1ccc(NC(=O)c2ccc(C(=O)Nc3ccc(C(=NCC)N(CC)C(=O)OCC)cc3)cc2)cc1)N(CC)C(=O)OCC
inactive: dose: 2.0 mg/kg/injection, schedule: Q01DX015 (ip), vehicle: methylcellulose (MC) 101 % of control | dose: 4.0 mg/kg/injection, schedule: Q01DX015 (ip), vehicle: methylcellulose (MC) 104 % of control | dose: 8.0 mg/kg/injection, schedule: Q01DX015 (ip), vehicle: methylcellulose (MC) 97 % of control | dose: 16.0 mg/kg/injection, schedule: Q01DX015 (ip), vehicle: methylcellulose (MC) 100 % of control | dose: 31.0 mg/kg/injection, schedule: Q01DX015 (ip), vehicle: methylcellulose (MC) 102 % of control | dose: 62.0 mg/kg/injection, schedule: Q01DX015 (ip), vehicle: methylcellulose (MC) 98 % of control | dose: 125.0 mg/kg/injection, schedule: Q01DX015 (ip), vehicle: methylcellulose (MC) 96 % of control | dose: 250.0 mg/kg/injection, schedule: Q01DX015 (ip), vehicle: methylcellulose (MC) 95 % of control | dose: 375.0 mg/kg/injection, schedule: Q01DX015 (ip), vehicle: methylcellulose (MC) 91 % of control | dose: 500.0 mg/kg/injection, schedule: Q01DX015 (ip), vehicle: methylcellulose (MC) 101 % of control

CCCC(C)Cc1ccc(C(=O)O)cc1 (stereo not given)
inactive: [1] 95 % of control | [2] 97 % of control | [3] 104 % of control | [4] 103 % of control | [5] 107 % of control

O=C1C(Br)=C(Br)c2ccccc21
inactive: [8] 100 % of control | [9] 99 % of control

COC1(c2ccccc2)ON=C(c2ccccc2)C=C1c1ccccc1 (stereo not given)
inactive: dose: 100.0 mg/kg/injection, schedule: Q04DX003 (ip), vehicle: saline 93 % of control | dose: 200.0 mg/kg/injection, schedule: Q04DX003 (ip), vehicle: saline 91 % of control | dose: 400.0 mg/kg/injection, schedule: Q04DX003 (ip), vehicle: saline 99 % of control

O=[N+]([O-])c1ccc(/C=N/N(Cc2ccccc2)c2ccccc2)s1
inactive: [10] 87 % of control | [11] 89 % of control

COc1cc(OC)c(NC(=O)c2cc3ccccc3cc2O)cc1Cl
inactive: [1] 96 % of control | [2] 101 % of control | [3] 101 % of control | [4] 101 % of control | dose: 400.0 mg/kg/injection, schedule: Q01DX009 (ip), vehicle: Klucel (hydroxypropylcellulose) (HPC) 96 % of control | [5] 111 % of control

CC(=N\NS(=O)(=O)c1ccc(C)cc1)/C(C)=N/NS(=O)(=O)c1ccc(C)cc1
inactive: [12] 87 % of control | [13] 89 % of control | [14] 90 % of control

O=C1c2ccccc2CC(Br)c2ccccc21 (stereo not given)
inactive: [15] 95 % of control | [16] 100 % of control | [17] 100 % of control

CCCCCCCCCCCCCC(=O)O
inactive: [2] 92 % of control | [4] 94 % of control | [5] 95 % of control

CCCCSc1nc(=O)[nH]nc1SCc1ccccc1
inactive: [18] 98 % of control | [19] 93 % of control | dose: 400.0 mg/kg/injection, schedule: Q01DX001 (ip), vehicle: saline 95 % of control

CC(=O)Nc1c(Cl)cc2c(c1Cl)Cc1c-2cc(Cl)c(NC(C)=O)c1Cl
inactive: [10] 93 % of control | [20] 93 % of control | [11] 101 % of control

CCNS(=O)(=O)c1ccc(Cl)c([N+](=O)[O-])c1
inactive: [15] 101 % of control | [16] 102 % of control | [17] 107 % of control

CC1=Nc2onc(C)c2N=C(C)C1
inactive: [6] 109 % of control | [10] 100 % of control | [7] 94 % of control | [20] 93 % of control | [21] 96 % of control | [11] 95 % of control

CCCCCCCCCCCCCCCCP(=O)(OCCOCCCCCC)OCCOCCCCCC
inactive: dose: 12.5 mg/kg/injection, schedule: Q01DX009 (ip), vehicle: acetone 93 % of control | dose: 12.5 mg/kg/injection, schedule: Q04DX003 (ip), vehicle: acetone 95 % of control | dose: 25.0 mg/kg/injection, schedule: Q01DX009 (ip), vehicle: acetone 100 % of control | dose: 25.0 mg/kg/injection, schedule: Q04DX003 (ip), vehicle: acetone 109 % of control | dose: 50.0 mg/kg/injection, schedule: Q01DX009 (ip), vehicle: acetone 93 % of control | dose: 50.0 mg/kg/injection, schedule: Q04DX003 (ip), vehicle: acetone 106 % of control

O=[N+]([O-])c1ccc(/C=N/Nc2nnc(N/N=C/c3ccc([N+](=O)[O-])cc3)c3ccccc23)cc1
inactive: [8] 93 % of control | [9] 101 % of control | [22] 93 % of control | [23] 98 % of control

COC(=O)c1cc(C)cc(OC(=S)N(C)C)c1C
inactive: [9] 96 % of control | dose: 100.0 mg/kg/injection, schedule: Q01DX009 (ip), vehicle: carboxymethylcellulose (CMC) 103 % of control | [22] 93 % of control | dose: 200.0 mg/kg/injection, schedule: Q01DX009 (ip), vehicle: carboxymethylcellulose (CMC) 98 % of control | [23] 96 % of control | dose: 400.0 mg/kg/injection, schedule: Q01DX009 (ip), vehicle: carboxymethylcellulose (CMC) 93 % of control | dose: 800.0 mg/kg/injection, schedule: Q01DX009 (ip), vehicle: carboxymethylcellulose (CMC) 103 % of control

CCCCCCCCCCCCN1CCCC(O)C1 (stereo not given)
inactive: [10] 93 % of control | [20] 88 % of control

O=C1C(=O)c2cc(Cl)ccc2-c2ccc(Cl)cc21
inactive: [8] 97 % of control | [9] 106 % of control | [22] 103 % of control | [23] 97 % of control

O/N=c1\ncn(O)c2nc[nH]c12
inactive: [12] 93 % of control | [13] 103 % of control | [14] 93 % of control | dose: 300.0 mg/kg/injection, schedule: Q01DX009 (ip), vehicle: saline 123 % of control

CC(=O)Oc1ccc(C2CC(=O)OC2=O)cc1 (stereo not given)
inactive: [6] 105 % of control | [10] 92 % of control | [7] 97 % of control | [20] 91 % of control | [21] 87 % of control | [11] 92 % of control

Cc1ccc(C#N)cc1.Cc1ccc(C#N)cc1.[Cl][Pt][Cl]
inactive: dose: 6.25 mg/kg/injection, schedule: Q04DX003 (ip), vehicle: water 109 % of control | dose: 12.5 mg/kg/injection, schedule: Q04DX003 (ip), vehicle: water 109 % of control | dose: 25.0 mg/kg/injection, schedule: Q04DX003 (ip), vehicle: water 106 % of control | dose: 50.0 mg/kg/injection, schedule: Q04DX003 (ip), vehicle: water 105 % of control

CC1(C)OC(=O)C2CCCCC21 (stereo not given)
inactive: dose: 25.0 mg/kg/injection, schedule: Q01DX009 (ip), vehicle: saline 89 % of control | dose: 50.0 mg/kg/injection, schedule: Q01DX009 (ip), vehicle: saline 93 % of control | [18] 97 % of control | [19] 90 % of control

C=CCOc1ccccc1C
inactive: dose: 50.0 mg/kg/injection, schedule: Q01DX001 (ip), vehicle: saline 98 % of control | [18] 95 % of control | [19] 97 % of control

Cc1ccc(C(C)CC(=O)O)cc1 (stereo not given)
inactive: [9] 101 % of control | [22] 95 % of control | [23] 93 % of control
